Measured values from PubChem BioAssay (NCI).
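Values below derive from 48-hour exposures of cells grown in 96-well plates, with endpoints linearly interpolated between the two concentrations bracketing the appropriate inhibition level. TGI: total growth inhibition.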

Experiments:
Assay in all cases: NCI anticancer screen, dose series, 48 h
SF-268 CNS = system: SF-268 CNS
IGROV1 ovarian = system: IGROV1 ovarian
COLO 205 colon = system: COLO 205 colon
RPMI-8226 leukemia = system: RPMI-8226 leukemia
MALME-3M melanoma = system: MALME-3M melanoma
NCI-H522 lung = system: NCI-H522 lung
HOP-62 NSCLC = system: HOP-62 NSCLC
HCT-15 colon = system: HCT-15 colon
SNB-75 CNS = system: SNB-75 CNS
SNB-19 CNS = system: SNB-19 CNS
DMS 273 small cell lung = system: DMS 273 small cell lung
CCRF-CEM leukemia = system: CCRF-CEM leukemia
SW-620 colon = system: SW-620 colon
M14 melanoma = system: M14 melanoma
A549 NSCLC = system: A549 NSCLC
KM12 colon = system: KM12 colon
EKVX NSCLC = system: EKVX NSCLC
OVCAR-8 ovarian = system: OVCAR-8 ovarian
SK-MEL-2 melanoma = system: SK-MEL-2 melanoma
HCT-116 colon = system: HCT-116 colon
SK-MEL-5 melanoma = system: SK-MEL-5 melanoma
OVCAR-4 ovarian = system: OVCAR-4 ovarian
UO-31 renal = system: UO-31 renal
RXF 393 renal = system: RXF 393 renal
DLD-1 colon = system: DLD-1 colon
LOX IMVI melanoma = system: LOX IMVI melanoma
UACC-257 melanoma = system: UACC-257 melanoma
UACC-62 melanoma = system: UACC-62 melanoma
LXFL 529 NSCLC = system: LXFL 529 NSCLC
786-0 renal = system: 786-0 renal
HOP-92 NSCLC = system: HOP-92 NSCLC
U251 CNS = system: U251 CNS
OVCAR-3 ovarian = system: OVCAR-3 ovarian
OVCAR-5 ovarian = system: OVCAR-5 ovarian
DMS 114 small cell lung = system: DMS 114 small cell lung
ACHN renal = system: ACHN renal
CAKI-1 renal = system: CAKI-1 renal
KM20L2 colon = system: KM20L2 colon
K-562 leukemia = system: K-562 leukemia
NCI-H23 lung = system: NCI-H23 lung
M19-MEL melanoma = system: M19-MEL melanoma
SF-539 CNS = system: SF-539 CNS
TK-10 renal = system: TK-10 renal
HCC-2998 colon = system: HCC-2998 colon
SNB-78 CNS = system: SNB-78 CNS
SK-MEL-28 melanoma = system: SK-MEL-28 melanoma
A498 renal = system: A498 renal
MOLT-4 leukemia = system: MOLT-4 leukemia
SK-OV-3 ovarian = system: SK-OV-3 ovarian
NCI-H460 lung = system: NCI-H460 lung
SF-295 CNS = system: SF-295 CNS
XF 498 CNS = system: XF 498 CNS
NCI-H226 lung = system: NCI-H226 lung
HL-60(TB) leukemia = system: HL-60(TB) leukemia
SN12C renal = system: SN12C renal
SR leukemia = system: SR leukemia
HT29 colon = system: HT29 colon
HOP-18 NSCLC = system: HOP-18 NSCLC

Measured: TGI

CCOc1ccc(NC(=O)/C(Cc2nc3ccccc3[nH]c2=O)=N\O)cc1
not listed: SF-295 CNS | XF 498 CNS | NCI-H226 lung | HL-60(TB) leukemia | SN12C renal | SR leukemia | HT29 colon | HOP-18 NSCLC
> 100 µM: all other assays above

CC(/C=C/c1ccccc1)=N\N=C(C)\C=C\c1ccccc1
not listed: COLO 205 colon | SNB-19 CNS | UO-31 renal | RXF 393 renal | UACC-62 melanoma | HOP-92 NSCLC | DMS 114 small cell lung | CAKI-1 renal | SF-539 CNS | HOP-18 NSCLC
> 100 µM: all other assays above

CO[C@H](C(=O)O[C@H]1C(=O)N2CCC3CCC1C32C)c1ccccc1 (stereo not given in full)
not listed: DMS 273 small cell lung | HOP-92 NSCLC | TK-10 renal | A498 renal
> 100 µM: all other assays above

C=CCNC(=O)ON1C(=O)CCC1=O
not listed: SK-MEL-5 melanoma | CAKI-1 renal | XF 498 CNS | NCI-H226 lung | SR leukemia
> 100 µM: all other assays above
